Laboratory results taken from patent publication US8575145B2, “Triazolopyridine compounds as PIM kinase inhibitors” (Array BioPharma Inc., priority 2008, dated 2013).
Where a name gives a salt, the structure may show the parent alone.

What was measured:
[1] = test system: C57BL/6J mice immunized with hen egg lysozyme; assay: B Cell in vivo Functional Assay (HEL-specific antibody isotypes); design: species or system mouse; conditions: 200 mg/kg oral once a day, Day 21, vs vehicle
Method: To determine the effect of a compound of Formula I on B cell responses, the following experiment was conducted. On Day O, C57BL/6J mice (Jackson Laboratories #000664, 6-8 weeks of age) were immunized at the base of the tail with 20 μg of hen egg lysozyme (HEL; Sigma #L7773) with complete Freund's adjuvant (CFA; Sigma #F5881). Mice were re-immunized on day 7 with 20 μg HEL in alum (Pierce catalog #77161). Starting on Day 0 and continuing through Day 28, mice were dosed once a day by oral administration with vehicle (water) or the compound of Example 26 (200 mg/kg). Serum was collected on days 0, 7, 14, 21, and 28 and analyzed for HEL-specific total IgG, IgG1, IgG2a, IgG2b, and IgG3 antibody production by capture ELISA (antibodies purchased from Invitrogen, catalog #M30007, #M32107, #M32307, #M32507, #M32607). ELISA plates were quantitated using Molecular Devices Versamax reader at […]. The group mean titer of each antibody analyte was converted to percent of vehicle control (=100%).

[2] = test system: C57BL/6 recipient mice, adoptive transfer EAE model; assay: Adoptive Transfer Experimental Autoimmune Encephalomyelitis; assay type: in vivo, mouse; conditions: 200 mg/kg oral gavage twice daily for 26 days
Method: Having observed that compounds of Formula I inhibit T cell activation in vitro and in vivo, the effect of a compound of Formula I on an autoimmune disease induced by T cells was determined using an adoptive transfer EAE model, an animal model of human multiple sclerosis (Brain (2006), 129, 1953-1971). This model relies on the injection of T cells from animals with EAE into disease-free host animals. This injection of cells is known to those skilled in the art as adoptive transfer. By injecting the animals with activated, encephalogenic T cells, this model is focused on the pathogenic stage of EAE autoimmune disease. On Day-14, C57BL/6 mice (Taconic Farms; 10 weeks old) were immunized with a disease-causing protein, MOG(35-55) peptide in complete Freund's adjuvant (Hooke Laboratories, catalog #EK-0113). On Day -3, spleens were harvested, single cell suspensions were prepared and then 5,000,000 cells/mL were stimulated with 20 μg/mL MOG(33-55) peptide (Open Biosystems), 30 ng/mL IL-12 (R&D Systems catalog #419-ML-010), 10 μg/mL anti-IFNγ antibody (BD Biosciences catalog #554408) at 37° C., 5% CO2. On Day 0, 1,500,000 of these cells were injected intravenously into the tail veins of C57BL/6 recipient mice. […] The recipient mice were scored daily days 0 through 26 using the following clinical scoring system: […]

[3] = test system: C57BL/6J mice, MOG-induced EAE; assay: MOG(35-55)-induced Experimental Autoimmune Encephalomyelitis; assay type: in vivo, mouse; conditions: 200 mg/kg oral gavage twice daily, days 7 through 27; vehicle and untreated 3.0
Method: To further determine the effect of compounds of Formula I on an autoimmune disease associated with T cells and cytokines, a MOG-induced experimental autoimmune encephalomyelitis (EAE) experiment was performed. MOG-induced EAE is an animal model of human multiple sclerosis (Brain (2006), 129, 1953-1971).
On Day 0, C57BL/6J mice (Jackson Laboratories #000664, 6-8 weeks of age) were injected subcutaneously with 100 μL of complete Freund's adjuvant (CFA) prepared as a 1:1 emulsion of (a) incomplete Freund's adjuvant (Difco, catalog #263910) containing 8 mg/mL m. tuberculosis H37RA (Difco, catalog #231141) and (b) phosphate buffered saline (PBS) containing 1 mg/mL MOG(35-55) peptide (California Peptide Research Inc). On the day 0 and 2, mice were injected intravenously with 200 ng of pertussis toxin (List Biological Laboratories, catalog #181). On day 7, the mice were randomized into treatment groups which received vehicle (distilled water) or the compound of Example 26 (200 mg/kg) administered by oral gavage twice daily from days 7 through 27.
The mice were scored daily on days 7 through 37 using the following clinical scoring system:
1.5—unsteady gait, mild hind limb ataxia
2.0—partial hind limb paralysis (hind limbs carrying weight)
2.5—partial hind limb paralysis (hind limbs not carrying weight)
3.0—full hind limb paralysis
3.5—full hind limb paralysis and partial front limb paralysis

MRL/MpJ-Fas<lpr> mice = assay: MRL/lpr Lupus Model; assay type: in vivo, mouse; conditions: 200 mg/kg twice daily
From the text: MRL/lpr is considered to be an animal model of systemic lupus erythematosus (SLE), an autoimmune disease (Cohen and Maldonado 2003, Current Protocols in Immunology Chapter 15, Unit 15.20). MRL/lpr mice have a defect in the apoptosis of activated lymphocytes and over time develop a spontaneous and severe lymphoproliferative disorder characterized by enlarged lymphoid organs, auto-antibody production and kidney disease resulting in proteinuria. […] To determine the effect of compounds of Formula I in this model of SLE, the following experiment was conducted.
MRL/MpJ-Fasand age-matched MRL/MpJ control mice (Jackson Laboratories, catalog #000485 and #000486, respectively) were treated once daily with vehicle (1% CMC/0.5% Tween 80) or twice daily with the compound of Example 26 (200 mg/kg) for 10 weeks. Body weights, lymphadenopathy and urine protein levels were monitored weekly. Urine protein levels were determined with Bayer Albustix dipsticks (Bayer catalog #2191) and scored according to the following scale:
Serum levels of anti-ds-DNA antibody were measured by ELISA (Alpha Diagnostic, catalog #5120) on Day 28 and upon study termination. ELISA plates were quantitated using a Molecular Devices Versamax plate reader at […] and titers calculated relative using to a standard curve using a 4-parameter curve fit with Softmax Pro software.

For F[C@@H]1CNCCC1Oc1cccc2ccc(-c3nnc4ccccn34)nc12 (stereo in doubt) [Example 26, 2-([1,2,4]triazolo[4,3-a]pyridin-3-yl)-8-((cis)-3-fluoropiperidin-4-yloxy)quinoline dihydrochloride], which “HEL-specific IgG2a titer” value [1] is on record?
The value was “decreased”.

And the “HEL-specific IgG2b titer” value [1]?
The value was “decreased”.

And the “HEL-specific IgG3 titer” value [1]?
Its value is “decreased”.

What about the “disease onset (first of 2 consecutive days with clinical score >= 1)” value [2] of the same molecule?
The value was “significant delay in disease onset”.

And the “median day of onset” value ([2]; untreated and vehicle groups day 6)?
The value was 11 days.

And the “median maximal clinical score” value [3]?
The value was 1.5.

And the proteinuria over time (MRL/MpJ-Fas<lpr> mice; 10 weeks, relative to vehicle control)?
Its proteinuria over time is “prevents the development of proteinuria”.

And the “decrease in serum anti-dsDNA relative to vehicle control” value (MRL/MpJ-Fas<lpr> mice; 28 days)?
Its value is 74%.

And the “decrease in serum anti-dsDNA antibodies relative to vehicle control” value (MRL/MpJ-Fas<lpr> mice; study termination (79 days of dosing))?
The value was 99%.
